Test results reported in patent US20160176914A1, “GLYCOSYLATED CARDIOTONIC STEROIDS” (priority 2013, published 2016).
Read-outs that look alike come from different tables or passages of the source.

Key:
α1β1 Na+/K+ ATPase = α1β1 Na+/K+ ATPase (Homo sapiens, UniProt P05023); experiment: Na+/K+ ATPase pump binding, α1β1 isoform (radioactive displacement assay)
Procedure: (§1) α1/2/3-Na^+/K^+ ATPase pump binding data was assessed for compounds of Table 1.
(§2) Further, from the results, a strong correlation between cancer cell cytotoxicity and α1/3-Na^+/K^+ ATPase pump binding selectivity was observed (see: α-L-amiceto-mono-, di- and tri-saccharides; Scheme 1). In addition, it was observed that mono-saccharides have improved activity and α1/2/3-isoform selectivity. […] The Na^+/K^+ ATPase binding data also correlates with the cytotoxicity data, which can be seen in the binding data of compounds 1.5-1.7 to all three isomers (α1β1/α2β1/α3β1), which decreases proportionally the MTT data (Table 1).

α3β1 Na+/K+ ATPase = α3β1 Na+/K+ ATPase (Homo sapiens, UniProt P13637); experiment: Na+/K+ ATPase pump binding, α3β1 isoform (radioactive displacement assay)
Procedure: as §1, §2

NCI-H460 cells [1] = experiment: cells; assay type: cell-based, Human; conditions: Homo sapiens
Procedure: (§3) Human non-small cell lung cancer cells (NCI-H460) were purchased from the American Type Culture Collection (Manassas, Va.). NCI-H460 cells were cultured in RPMI 1640 medium supplemented with 10% bovine fetal serum (FBS), 2 mM L-glutamine and 100-units/ml penicillin/streptomycin. All experiments with NCI-H460 cells were performed in medium enriched with 1% FBS serum, 2 mM L-glutamine and 100-units/ml penicillin/streptomycin. 1% FBS was used due to existing concerns about digitoxin binding to serum proteins.
Cells were seeded overnight in 96 well plates at a concentration of 1×10^4 cells/well, and then treated for 48 h with a log10 scale dilution series of the glycosylated CS compounds (e.g., digitoxin or D6-MA) dissolved in sterile filtered DMSO. Subsequently, 10 μl of 5 mg/ml MTT reagent was added to each well and then incubated for 4 h at 37° C. Isopropanol acidified with 0.04 N HCl was used to dissolve converted dye. Absorbance at 570 nm was measured using an Automated Microplate Reader ELx800 (BioTek, Winooski, Vt.). Each experiment was conducted 4 times with 4 replicate wells per concentration.
(§4) All results are presented as mean±standard deviation. For cell viability, ATPase activity and apoptosis assays, dose-response curves and concentrations that caused 50% effect (i.e. IC50) were calculated for the prepared compounds listed in Tables 1-3 in all the cell lines tested using non-linear regression analysis in GraphPad Prism 5.0 (San Diego, Calif.). Two-way analysis of variance (ANOVA) and unpaired two-tailed Student's t-test with α=0.05 were performed to compare the effect of compounds and administered dose on cell viability, apoptosis and quantified protein expression data. Post-hoc Tukey-Kramer HSD tests were conducted on significant ANOVA results. Results were considered significant when p≦0.05.

α2β1 Na+/K+ ATPase = α2β1 Na+/K+ ATPase (Homo sapiens, UniProt P50993); experiment: Na+/K+ ATPase pump binding, α2β1 isoform (radioactive displacement assay)
Procedure: as §1, §2

HCMV = experiment: Anti-CMV activity assay, inhibition of HCMV replication in infected HFFs; assay type: cell-based, human Cytomegalovirus (HCMV); conditions: for SI (selectivity index, CC50/EC50): CC50 noninfected HFFs / EC50 infected HFFs
Procedure: It has been observed that the infection of human foreskin fibroblasts (HFF) cells with HCMV causes an up regulation of the α3-isoform of the Na^+/K^+-Pump. Therefore the inhibition of HCMV replication by the compounds described herein was tested using procedure described by Cai, H. et al., in Med. Chem. Lett. 2014, 5, 395-399, which is incorporated by reference in its entirety. Generally, inhibition of Towne HCMV: pp28-luciferase activity was measured in cell lysates of HCMV-infected HFFs collected at 72 h post infection (hpi). Virus DNA yield in supernatants of HCMV-infected cells collected at 96 hpi was measured by real-time PCR. Plaque reduction assay performed at 8 days postinfection. Data represent mean values (±SD) of triplicate determinations from three independent experiments.
Inhibition of TB40 HCMV: HFFs were infected with HCMV-TB40 strain at MOI of 1 pfu/cell and treated with compounds listed in Tables 1-3 for 3 days.
(§5) The glycosylated cardiotonic steroid compounds were tested for their anti-cytomegalovirus (CMV) activity. Specifically, the compounds were tested for the ability to inhibit HCMV replication. For each compound, the anti-HCMV activity in infected HFFs was expressed as EC50, whereas cytotoxicity in noninfected HFFs was expressed as CC50. Selectivity index (SI), defined as CC50/EC50, was calculated for each compound.

noninfected HFFs = experiment: Cytotoxicity in noninfected HFFs (MTT); assay type: cell-based, human
Procedure: as §5

[2] = Cytotoxicity in noninfected HFFs (MTT); assay type: cell-based, human; conditions: human
Procedure: as §5

NCI-H460 cells [3] = experiment: Apoptosis assay (Hoechst 33342); assay type: cell-based; conditions: Homo sapiens, read-out: Anticancer Apoptosis GI50
Procedure: as §3
Cells were seeded overnight in 12 or 24 well plates at a concentration of 1×10^5 cell/ml and subsequently treated with different concentrations of the glycosylated CS compounds for 24 h. After treatment, cells were incubated with […] of Hoechst 33342 for 30 min and analyzed for apoptosis by scoring the percentage of cells having intensely condensed chromatin and/or fragmented nuclei using fluorescence microscopy (Leica Microsystems, Bannockburn, Ill.). Approximately 1,000 nuclei from ten random fields were analyzed for each sample. The apoptotic index was calculated as the percentage of cells with apoptotic nuclei over total number of cells.
as §4

[4] = NCI-H460, 48 h, read-out: Anticancer MTT IC50
[5] = anti-HCMV activity in infected HFFs, read-out: EC50

| Compound | Kd (α1β1 Na+/K+ ATPase) [nM] | Kd (α3β1 Na+/K+ ATPase) [nM] | IC50 (NCI-H460 cells [1]; [4]) [nM] | Kd (α2β1 Na+/K+ ATPase) [nM] | EC50 (HCMV; [5]) [nM] | SI (selectivity index, CC50/EC50) (HCMV) | EC50 (HCMV; Human betaherpesvirus 5) [nM] | CC50 [2] [nM] | further results |
| --- | --- | --- | --- | --- | --- | --- | --- | --- | --- |
| CC1OC(OC2CCC(OC3CCC(OC4CCC5(C)C(CCC6C5CCC5(C)C(C7=CC(=O)OC7)CCC65O)C4)OC3C)OC2C)CCC1O (stereo not drawn) [Compound 1.7] | 670 | 736 | 3960 | 149 |  |  |  |  |  |
| CC1OC(OC2C(C)OC(OC3C(C)OC(OC4CCC5(C)C(CCC6C5CCC5(C)C(C7=CC(=O)OC7)CCC65O)C4)C(O)C3O)C(O)C2O)C(O)C(O)C1O (stereo not drawn) [Compound 1.4] | 393 | 345 | 1350 | 164 |  |  |  |  |  |
| α-D-Rhamnose |  |  |  |  | 26.6 ± 0.88 |  |  |  | CC50 (noninfected HFFs): 2270 ± 551 nM |
| CC1O[C@@H](O[C@H]2CCC3(C)C(CC[C@@H]4C3CCC3(C)[C@@H](C5=CC(=O)OC5)CC[C@]43O)C2)C(O)C(O)[C@H]1O (stereo partly drawn) [Compound 1.2, digitoxigenin α-L-rhamnopyranoside] | 27 | 19 | 47 | 23 |  | 173 | 4.77 ± 0.23 | 664 ± 185 | SI (selectivity index, CC50/EC50) (HCMV; listed as α-L-Rhamnose (1.2)): 139.25; GI50 (NCI-H460 cells [3]; NCI-H460, 24 h): 2 nM |
| C[C@H]1O[C@@H](O[C@H]2[C@@H](O)C[C@H](O[C@H]3[C@@H](O)C[C@H](O[C@H]4CC[C@@]5(C)[C@H](CC[C@@H]6[C@@H]5CC[C@]5(C)[C@@H](C7=CC(=O)OC7)CC[C@]65O)C4)O[C@@H]3C)O[C@@H]2C)C[C@H](O)[C@@H]1O [Digitoxin, reference compound] |  |  |  |  |  | 120.46 | 23.3 ± 0.67 | 2810 ± 668 | Kd (α1β1 Na+/K+ ATPase; first KD column of Table 4, read-out: Na+/K+ATPase inhibition KD, α1β1): 80 nM; SI (selectivity index, CC50/EC50) (HCMV; listed as digitoxin): 120; Kd (α3β1 Na+/K+ ATPase; third KD column of Table 4, head printed α1β1 a second time, read-out: Na+/K+ATPase inhibition KD, α1β1): 36 nM; GI50 (NCI-H460 cells [3]; NCI-H460, Table 4, 24 h treatment, unit inferred): 11 nM; IC50 (NCI-H460 cells [1]; NCI-H460, Table 4, 48 h treatment, unit inferred, read-out: Anticancer MTT IC50): 357 nM; IC50 (NCI-H460 cells [1]; NCI-H460, Table 5, H460 cells, compounds of Table 2, read-out: IC50): 157 nM; Kd (α2β1 Na+/K+ ATPase; second KD column of Table 4, read-out: Na+/K+ATPase inhibition KD, α2β1): 38 nM |
| CC1O[C@@H](O[C@H]2CCC3(C)C(CC[C@@H]4C3CCC3(C)[C@@H](C5=CC(=O)OC5)CC[C@]43O)C2)CC[C@H]1O (stereo partly drawn) [Compound 1.5, digitoxigenin α-L-amecitopyranoside] | 56 | 26 | 48 | 38 |  | 139 | 3.77 ± 0.08 | 655 ± 177 | SI (selectivity index, CC50/EC50) (HCMV; listed as α-L-Amicetose (1.5)): 173.61; GI50 (NCI-H460 cells [3]; NCI-H460, 24 h): 3 nM |
| α-D-Mannose |  |  |  |  | 7.31 ± 0.12 |  |  |  |  |
| α-D-Amicetose |  |  |  |  | 37.5 ± 0.52 |  |  |  | CC50 (noninfected HFFs): 1110 ± 273 nM |
| CC1OC(OC2CCC(OC3CCC4(C)C(CCC5C4CCC4(C)C(C6=CC(=O)OC6)CCC54O)C3)OC2C)CCC1O (stereo not drawn) [Compound 1.6] | 223 | 186 | 510 | 156 |  |  |  |  |  |
